Data reported in US8957093B2, “N-biphenylmethylindole modulators of PPARG” (The Scripps Research Institute, priority 2011, dated 2015).
Where two headings read alike, the source gives them in different places.

How the values were obtained:
[1] = target: GST-PPARG-LBD (Homo sapiens (Human), UniProt P37231); assay: Lanthascreen PPARG competitive binding assay (Invitrogen, TR-FRET); details: Lanthascreen competitive binding; NA = not active; inc = incomplete curve; read-out: IC50 (nM) Lantha
Outline: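 Values are fold change in 520 nm/490 nm FRET ratio relative to a 2% DMSO no-ligand control, excitation 340 nm. Compound dilutions starting at 10 μM competed against 5 nM Fluormone Pan-PPAR Green for GST-PPARG-LBD bound by 5 nM Tb anti-GST antibody. Incubation 2 h in the dark in assay buffer C, triplicate wells.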

[2] = target: Gal-4-PPAR (human PPAR LBD fused to GAL4 DNA-binding domain) (Homo sapiens (Human), UniProt P37231); assay: GAL4-PPARG LBD / UAS-luciferase transactivation assay in HEK 293T cells; format: cell-based
[3] = GAL4 transactivation, HEK 293T cells; NA = not active; read-out: EC50 (nM) GAL4
[4] = HEK-293T, 18 h; read-out: % transactivation at 10 μM (GAL4)
[5] = HEK-293T, 18 h, read-out: % transactivation at 10 μM (GAL4)

Sequence of GST-PPARG-LBD (P37231 238-503): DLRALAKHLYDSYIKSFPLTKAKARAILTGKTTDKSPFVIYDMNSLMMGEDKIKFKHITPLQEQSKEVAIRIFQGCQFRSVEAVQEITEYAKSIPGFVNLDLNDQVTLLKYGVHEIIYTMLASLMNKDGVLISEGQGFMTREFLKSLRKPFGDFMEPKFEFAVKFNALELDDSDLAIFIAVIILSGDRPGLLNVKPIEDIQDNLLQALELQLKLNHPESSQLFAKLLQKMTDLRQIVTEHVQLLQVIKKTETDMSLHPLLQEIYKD
Sequence of Gal-4-PPAR (human PPAR LBD fused to GAL4 DNA-binding domain) (P37231 238-503): as above

SMILES	IC50 [1]	EC50 [2, 3]	activation at 10 µM [2, 4]	activation at 10 µM [2, 5]
Cc1c(C)n(Cc2ccc(-c3ccccc3C(=O)O)cc2)c2ccc(C(=O)N[C@@H](C)c3cc(Cl)cc(Cl)c3)cc12 [Example 219, (S)-4′-((5-((1-(3,5-dichlorophenyl)ethyl)carbamoyl)-2,3-dimethyl-1H-indol-1-yl)methyl)-[1,1′-biphenyl]-2-carboxylic acid]	15 nM	155 nM	30%	–
Cc1c(C)n(Cc2ccc(-c3ccccc3C(=O)O)cc2)c2ccc(C(=O)N[C@@H](C)c3ccc(Cl)c(Cl)c3)cc12 [Example 220, (S)-4′-((5-((1-(3,4-dichlorophenyl)ethyl)carbamoyl)-2,3-dimethyl-1H-indol-1-yl)methyl)-[1,1′-biphenyl]-2-carboxylic acid]	10 nM	142 nM	30%	–
Cc1c(C)n(Cc2ccc(-c3ccccc3C(=O)O)cc2)c2ccc(C(=O)N[C@@H](C)c3cc(C(F)(F)F)ccc3F)cc12 [Example 221, (S)-4′-((5-((1-(2-fluoro-5-(trifluoromethyl)phenyl)ethyl)carbamoyl)-2,3-dimethyl-1H-indol-1-yl)methyl)-[1,1′-biphenyl]-2-carboxylic acid]	11 nM	156 nM	20%	–
COc1cc(C(F)(F)F)ccc1[C@H](C)NC(=O)c1ccc2c(c1)c(C)c(C)n2Cc1ccc(-c2ccccc2C(=O)O)cc1 [Example 223, (S)-4′-((5-((1-(2-methoxy-4-(trifluoromethyl)phenyl)ethyl)carbamoyl)-2,3-dimethyl-1H-indol-1-yl)methyl)-[1,1′-biphenyl]-2-carboxylic acid]	73 nM	676 nM	10%	–
COc1cc(C(F)(F)F)ccc1[C@@H](C)NC(=O)c1ccc2c(c1)c(C)c(C)n2Cc1ccc(-c2ccccc2C(=O)O)cc1 [Example 224, (R)-4′-((5-((1-(2-methoxy-4-(trifluoromethyl)phenyl)ethyl)carbamoyl)-2,3-dimethyl-1H-indol-1-yl)methyl)-[1,1′-biphenyl]-2-carboxylic acid]	2 nM	86 nM	20%	–
CCc1ccc([C@H](C)NC(=O)c2ccc3c(c2)c(C)c(C)n3Cc2ccc(-c3ccccc3C(=O)O)cc2)cc1 [Example 225, (S)-4′-((5-((1-(4-ethylphenyl)ethyl)carbamoyl)-2,3-dimethyl-1H-indol-1-yl)methyl)-[1,1′-biphenyl]-2-carboxylic acid]	43 nM	1130 nM	20%	–
Cc1cc(Cl)ccc1[C@H](C)NC(=O)c1ccc2c(c1)c(C)c(C)n2Cc1ccc(-c2ccccc2C(=O)O)cc1 [Example 226, (S)-4′-((5-((1-(4-chloro-2-methylphenyl)ethyl)carbamoyl)-2,3-dimethyl-1H-indol-1-yl)methyl)-[1,1′-biphenyl]-2-carboxylic acid]	11 nM	172 nM	20%	–
Cc1c(C)n(Cc2ccc(-c3ccccc3C(=O)O)cc2)c2ccc(C(=O)N[C@@H](C)c3ccc(F)cc3C(F)(F)F)cc12 [Example 227, (S)-4′-((5-((1-(4-fluoro-2-(trifluoromethyl)phenyl)ethyl)carbamoyl)-2,3-dimethyl-1H-indol-1-yl)methyl)-[1,1′-biphenyl]-2-carboxylic acid]	36 nM	173 nM	–	20%
Cc1c(C)n(Cc2ccc(-c3ccccc3C(=O)O)cc2)c2ccc(C(=O)N[C@@H](C)c3ccc(C(F)(F)F)c(F)c3)cc12 [Example 228, (S)-4′-((5-((1-(3-fluoro-4-(trifluoromethyl)phenyl)ethyl)carbamoyl)-2,3-dimethyl-1H-indol-1-yl)methyl)-[1,1′-biphenyl]-2-carboxylic acid]	53 nM	1060 nM	15%	–
Cc1c(C)n(Cc2ccc(-c3ccccc3C(=O)O)cc2)c2ccc(C(=O)N[C@@H](C)c3cccc(F)c3F)cc12 [Example 229, (S)-4′-((5-((1-(2,3-difluorophenyl)ethyl)carbamoyl)-2,3-dimethyl-1H-indol-1-yl)methyl)-[1,1′-biphenyl]-2-carboxylic acid]	9 nM	354 nM	30%	–
Cc1c(C)n(Cc2ccc(-c3ccccc3C(=O)O)cc2)c2ccc(C(=O)N[C@@H](C)c3cccc(C(F)(F)F)c3Cl)cc12 [Example 230, (S)-4′-((5-((1-(2-Chloro-3-(trifluoromethyl)phenyl)ethyl)carbamoyl)-2,3-dimethyl-1H-indol-1-yl)methyl)-[1,1′-biphenyl]-2-carboxylic acid]	103 nM	709 nM	–	20%
Cc1c(C)n(Cc2ccc(-c3ccccc3C(=O)O)cc2)c2ccc(C(=O)N[C@H](C)c3cccc(C(F)(F)F)c3Cl)cc12 [Example 231, (R)-4′-((5-((1-(2-chloro-3-(trifluoromethyl)phenyl)ethyl)carbamoyl)-2,3-dimethyl-1H-indol-1-yl)methyl)-[1,1′-biphenyl]-2-carboxylic acid]	2 nM	131 nM	–	10%
Cc1c(C)n(Cc2ccc(-c3ccccc3C(=O)O)cc2)c2ccc(C(=O)N[C@@H](C)c3cccc(Cl)c3F)cc12 [Example 232, (S)-4′-((5-((1-(3-chloro-2-fluorophenyl)ethyl)carbamoyl)-2,3-dimethyl-1H-indol-1-yl)methyl)-[1,1′-biphenyl]-2-carboxylic acid]	18 nM	297 nM	30%	–
Cc1c(C)n(Cc2ccc(-c3ccccc3C(=O)O)cc2)c2ccc(C(=O)N[C@@H](C)c3ccc(F)c(F)c3)cc12 [Example 233, (S)-4′-((5-((1-(3,4-difluorophenyl)ethyl)carbamoyl)-2,3-dimethyl-1H-indol-1-yl)methyl)-[1,1′-biphenyl]-2-carboxylic acid]	9 nM	166 nM	40%	–
Cc1c(C)n(Cc2ccc(-c3ccccc3C(=O)O)cc2)c2ccc(C(=O)N[C@H](C)c3ccc(C(F)(F)F)c(F)c3)cc12 [Example 234, (R)-4′-((5-((1-(3-fluoro-4-(trifluoromethyl)phenyl)ethyl)carbamoyl)-2,3-dimethyl-1H-indol-1-yl)methyl)-[1,1′-biphenyl]-2-carboxylic acid]	< 1 nM	40 nM	50%	–
Cc1c(C)n(Cc2ccc(-c3ccccc3C(=O)O)cc2)c2ccc(C(=O)N[C@H](C)c3c(F)ccc(F)c3F)cc12 [Example 235, (R)-4′-((2,3-dimethyl-5-((1-(2,3,6-trifluorophenyl)ethyl)carbamoyl)-1H-indol-1-yl)methyl)-[1,1′-biphenyl]-2-carboxylic acid]	3 nM	37 nM	–	30%
Cc1c(C)n(Cc2ccc(-c3ccccc3C(=O)O)cc2)c2ccc(C(=O)N[C@@H](C)c3c(F)ccc(F)c3F)cc12 [Example 236, (S)-4′-((2,3-dimethyl-5-((1-(2,3,6-trifluorophenyl)ethyl)carbamoyl)-1H-indol-1-yl)methyl)-[1,1′-biphenyl]-2-carboxylic acid]	17 nM	293 nM	–	20%
Cc1c(C)n(Cc2ccc(-c3ccccc3C(=O)O)cc2)c2ccc(C(=O)N[C@@H](C)[C@@H]3CCCN3C(=O)OCc3ccccc3)cc12 [Example 237, 4′-((5-(((S)-1-((S)-1-((benzyloxy)carbonyl)pyrrolidin-2-yl)ethyl)carbamoyl)-2,3-dimethyl-1H-indol-1-yl)methyl)-[1,1′-biphenyl]-2-carboxylic acid]	118 nM	417 nM	30%	–
Cc1c(C)n(Cc2ccc(-c3ccccc3C(=O)O)cc2)c2ccc(C(=O)N[C@@H](C)[C@H]3CCCN3C(=O)OCc3ccccc3)cc12 [Example 238, 4′-((5-(((S)-1-((R)-1-((benzyloxy)carbonyl)pyrrolidin-2-yl)ethyl)carbamoyl)-2,3-dimethyl-1H-indol-1-yl)methyl)-[1,1′-biphenyl]-2-carboxylic acid]	20 nM	193 nM	55%	–
Cc1c(C)n(Cc2ccc(-c3ccccc3C(=O)O)cc2)c2ccc(C(=O)N[C@H](C)c3cc(F)ccc3C(F)(F)F)cc12 [Example 239, (R)-4′-((5-((1-(5-fluoro-2-(trifluoromethyl)phenyl)ethyl)carbamoyl)-2,3-dimethyl-1H-indol-1-yl)methyl)-[1,1′-biphenyl]-2-carboxylic acid]	17 nM	169 nM	–	15%
Cc1c(C)n(Cc2ccc(-c3ccccc3C(=O)O)cc2)c2ccc(C(=O)N[C@@H](C)[C@@H]3CCN(C(=O)OCc4ccccc4)C3)cc12 [Example 240, 4′-((5-(((S)-1-((R)-1-((benzyloxy)carbonyl)pyrrolidin-3-yl)ethyl)carbamoyl)-2,3-dimethyl-1H-indol-1-yl)methyl)-[1,1′-biphenyl]-2-carboxylic acid]	58 nM	1300 nM	25%	–
Cc1c(C)n(Cc2ccc(-c3ccccc3C(=O)O)cc2)c2ccc(C(=O)N[C@@H](C)c3cc(F)ccc3C(F)(F)F)cc12 [Example 241, (S)-4′-((5-((1-(5-fluoro-2-(trifluoromethyl)phenyl)ethyl)carbamoyl)-2,3-dimethyl-1H-indol-1-yl)methyl)-[1,1′-biphenyl]-2-carboxylic acid]	57 nM	453 nM	–	20%
